The values below come from patent US20160287514A1 (PIERRE FABRE MEDICAMENT, priority 2012, published 2016).

Like-named read-outs stand apart in the source and are kept apart here.

For series [1] the following is noted: in vivo; cited from earlier work.
The format of series [2] is physicochemical.
Series [3] has as its system pharyngitis. The settings on record: ibuprofen 400 mg; meta-analysis; cited from earlier work.

In general, half-life refers to how long it takes for the measured level to halve. As for `CC(C(=O)O)c1ccc(-c2ccccc2)c(F)c1` (centres unmarked) [flurbiprofen], the half-life in series [1] was 4 h.

For the molecule ibuprofen lysinate, the “total content of impurities” value is given as <0.1 percentage in series [2] (T0, closed pill box); 0.15 percentage in series [2] (T1 month, 25° C., RH 60, closed pill box); 0.19 percentage in series [2] (T1 month, 40° C., RH 75, closed pill box); 0.53 percentage in series [2] (T1 month, 40° C., RH 75, open pill box); 0.15 percentage in series [2] (T2 months, 25° C., RH 60, closed pill box); 0.21 percentage in series [2] (T2 months, 40° C., RH 75, closed pill box). The “total content of impurities” value in series [2] (T2 months, 40° C., RH 75, open pill box) was 2.21 percentage; in series [2] (T3 months, 25° C., RH 60, closed pill box), 0.17 percentage; in series [2] (T3 months, 40° C., RH 75, closed pill box), 0.27 percentage; in series [2] (T3 months, 40° C., RH 75, open pill box), 3.10 percentage; in series [2] (T15 d, 40° C., RH 75, closed pill box), 0.28 percentage.

Regarding `CC(C)Cc1ccc(C(C)C(=O)O)cc1` (centres unmarked) [ibuprofen, 2-(4-(2-methylpropyl)phenyl)propanoic acid], the “pain relief in pharyngitis compared with acetaminophene (1000 mg, paracetamol)” value in series [3] is listed as “significant superiority”.

As for `CC(C)Cc1ccc(C(C)C(=O)O)cc1.O.O.[Na]` (centres unmarked) [Sod, ibuprofen sodium dihydrate], the “content of impurities compared among the salts” value in series [2] (regardless of the long term temperature and humidity conditions) is “lowest content of impurities”.
